Measurements: patent publication US6610853B1, “N-(phenylsulfonyl)picolinamide derivatives, process for producing the same, and herbicide” (Kureha Kagaku Kogyo K.K., priority 2000, dated 2003)

What was measured:
Assay in all cases: Test on herbicidal activity by foliar application
Format in all cases: in vivo
Conditions in all cases: foliar spray, 1 kg/ha, plants at 1-2 leaf stage in pots, evaluated 14 days after spraying
Solanum nigrum = system: Solanum nigrum
Procedure: (§1) Test on Herbicidal Activity by Foliar Application: Herbicidal solutions of each test compounds, which were prepared by dissolving at predetermined concentrations such a wettable powder of the test compound as that described in the above Formulation Example, were sprayed at dosages of 1 kg/ha over foliar parts of Amaranthus retroflexus, Bidens pilosa, Sinapis arvensis, Stellaria media, Solanum nigrum, Abutilon theophrasti, Convolvulus arvensis, Matricaria chamomilla, Galium aparine, Veronica hederaefolia, and Setaria viridis (each test plant is 1-2 leaf stage) which were grown in pots. 14 days latter after spraying, its herbicidal activity was evaluated in accordance with the below-described system. Herbicidal Activity 1: less than 30% inhibition 2: 30% or more-50% inhibition 3: 50% or more-70% inhibition 4: 70% or more-90% inhibition 5: 90% or more inhibition

Amaranthus retroflexus = system: Amaranthus retroflexus
Procedure: as §1

Stellaria media = system: Stellaria media
Procedure: as §1

Convolvulus arvensis = system: Convolvulus arvensis
Procedure: as §1

Veronica hederaefolia = system: Veronica hederaefolia
Procedure: as §1

Matricaria chamomilla = system: Matricaria chamomilla
Procedure: as §1

Sinapis arvensis = system: Sinapis arvensis
Procedure: as §1

Abutilon theophrasti = system: Abutilon theophrasti
Procedure: as §1

Galium aparine = system: Galium aparine
Procedure: as §1

Bidens pilosa = system: Bidens pilosa
Procedure: as §1

Setaria viridis = system: Setaria viridis
Procedure: as §1

Compound	Herbicidal activity, Solanum nigrum (Solanum nigrum)	Herbicidal activity, Amaranthus retroflexus (Amaranthus retroflexus)	Herbicidal activity, Stellaria media (Stellaria media)	Herbicidal activity, Convolvulus arvensis (Convolvulus arvensis)	Herbicidal activity, Veronica hederaefolia (Veronica hederaefolia)	Herbicidal activity, Matricaria chamomilla (Matricaria chamomilla)	Herbicidal activity, Sinapis arvensis (Sinapis arvensis)	Herbicidal activity, Abutilon theophrasti (Abutilon theophrasti)	Herbicidal activity, Galium aparine (Galium aparine)	Herbicidal activity, Bidens pilosa (Bidens pilosa)	Herbicidal activity, Setaria viridis (Setaria viridis)
COc1cc(Cl)nc(C(=O)NS(=O)(=O)c2ccccc2S(C)(=O)=O)c1 [Compound I-818, 6-Chloro-4-methoxy-N-[[2-(methylsulfonyl)-phenyl]sulfonyl]-2-pyridinecarboxamide]	5 (90% or more inhibition)	5 (90% or more inhibition)	5 (90% or more inhibition)	5 (90% or more inhibition)	4 (70% or more-90% inhibition)	5 (90% or more inhibition)	5 (90% or more inhibition)	4 (70% or more-90% inhibition)	5 (90% or more inhibition)	5 (90% or more inhibition)	5 (90% or more inhibition)
O=C(NS(=O)(=O)c1c(Cl)cccc1Cl)c1cc(Cl)cc(Cl)n1 [Compound I-557, 4,6-Dichloro-N-[(2,6-Dichlorophenyl)sulfonyl]-pyridine-2-carboxamide]	5 (90% or more inhibition)	5 (90% or more inhibition)	5 (90% or more inhibition)	5 (90% or more inhibition)	5 (90% or more inhibition)	5 (90% or more inhibition)	5 (90% or more inhibition)	5 (90% or more inhibition)	5 (90% or more inhibition)	5 (90% or more inhibition)	5 (90% or more inhibition)
COc1ccc(C(=O)NS(=O)(=O)c2ccccc2S(=O)(=O)N(C)C)nc1OC [Compound I-889, N-[[2-(N,N-Dimethylaminosulfonyl)phenyl]-sulfonyl]-5,6-dimethoxy-2-pyridinecarboxamide]	4 (70% or more-90% inhibition)	5 (90% or more inhibition)	5 (90% or more inhibition)	4 (70% or more-90% inhibition)	3 (50% or more-70% inhibition)	5 (90% or more inhibition)	5 (90% or more inhibition)	5 (90% or more inhibition)	5 (90% or more inhibition)	5 (90% or more inhibition)	4 (70% or more-90% inhibition)
COC(=O)c1ccccc1S(=O)(=O)NC(=O)c1ccc(OC)cn1 [Compound I-234, 2-[[[(5-Methoxypyridin-2-yl)carbonyl]amino]-sulfonyl]benzoic Acid Methyl Ester]	5 (90% or more inhibition)	5 (90% or more inhibition)	5 (90% or more inhibition)	4 (70% or more-90% inhibition)	4 (70% or more-90% inhibition)	5 (90% or more inhibition)	5 (90% or more inhibition)	5 (90% or more inhibition)	4 (70% or more-90% inhibition)	5 (90% or more inhibition)	4 (70% or more-90% inhibition)
COc1ccc(C(=O)NS(=O)(=O)c2ccccc2S(=O)(=O)N(C)C)nc1Cl [Compound I-888, N-[[2-(N,N-Dimethylaminosulfonyl)phenyl]-sulfonyl]-6-chloro-5-methoxy-2-pyridinecarboxamide]	5 (90% or more inhibition)	5 (90% or more inhibition)	5 (90% or more inhibition)	5 (90% or more inhibition)	4 (70% or more-90% inhibition)	5 (90% or more inhibition)	5 (90% or more inhibition)	5 (90% or more inhibition)	5 (90% or more inhibition)	5 (90% or more inhibition)	5 (90% or more inhibition)
COc1ccc(C(=O)NS(=O)(=O)c2ccccc2OC(F)(F)F)nc1Cl [Compound I-798, N-[(2-Trifluoromethoxyphenyl)sulfonyl]-6-chloro-5-methoxy-2-pyridinecarboxamide]	5 (90% or more inhibition)	5 (90% or more inhibition)	5 (90% or more inhibition)	4 (70% or more-90% inhibition)	5 (90% or more inhibition)	5 (90% or more inhibition)	5 (90% or more inhibition)	5 (90% or more inhibition)	5 (90% or more inhibition)	5 (90% or more inhibition)	3 (50% or more-70% inhibition)
COc1ccc(C(=O)NS(=O)(=O)c2ccccc2S(=O)(=O)N(C)C)nc1 [Compound I-864]	4 (70% or more-90% inhibition)	3 (50% or more-70% inhibition)	5 (90% or more inhibition)	3 (50% or more-70% inhibition)	4 (70% or more-90% inhibition)	5 (90% or more inhibition)	5 (90% or more inhibition)	5 (90% or more inhibition)	4 (70% or more-90% inhibition)	5 (90% or more inhibition)	4 (70% or more-90% inhibition)
COC(=O)c1ccccc1S(=O)(=O)NC(=O)c1ccc(OC)c(Cl)n1 [Compound I-258, 2-[[[(6-Chloro-5-methoxypyridin-2-yl)carbonyl]-amino]sulfonyl]benzoic Acid Methyl Ester]	5 (90% or more inhibition)	5 (90% or more inhibition)	5 (90% or more inhibition)	5 (90% or more inhibition)	4 (70% or more-90% inhibition)	5 (90% or more inhibition)	5 (90% or more inhibition)	5 (90% or more inhibition)	5 (90% or more inhibition)	5 (90% or more inhibition)	5 (90% or more inhibition)
COc1ccc(C(=O)NS(=O)(=O)c2ccccc2OC(F)(F)F)nc1Br [Compound I-805, N-[[2-Trifluoromethoxyphenyl]sulfonyl]-6-bromo-5-methoxy-2-pyridinecarboxamide]	5 (90% or more inhibition)	5 (90% or more inhibition)	5 (90% or more inhibition)	5 (90% or more inhibition)	4 (70% or more-90% inhibition)	5 (90% or more inhibition)	5 (90% or more inhibition)	5 (90% or more inhibition)	5 (90% or more inhibition)	5 (90% or more inhibition)	4 (70% or more-90% inhibition)
COc1cc(Cl)cc(C(=O)NS(=O)(=O)c2c(Cl)cccc2Cl)n1 [Compound I-581, N-[(2,6-Dichlorophenyl)sulfonyl]-4-chloro-6-methoxy-2-pyridinecarboxamide]	5 (90% or more inhibition)	5 (90% or more inhibition)	5 (90% or more inhibition)	4 (70% or more-90% inhibition)	4 (70% or more-90% inhibition)	5 (90% or more inhibition)	5 (90% or more inhibition)	4 (70% or more-90% inhibition)	5 (90% or more inhibition)	5 (90% or more inhibition)	4 (70% or more-90% inhibition)
